# Source: ChEMBL document CHEMBL4765421, “Synthesis of natural 3'-Prenylchalconaringenin and biological evaluation of ameliorating non-alcoholic fatty liver disease and metabolic syndrome” (Eur J Med Chem, 2020)
# Active and inactive are the calls of the source. The rule behind the calls is not given here.
# Legend:
# HepG2 [1] = assay: Cytotoxicity against human HepG2 cells assessed as reduction in cell viability at 10 to 20 uM by MTT assay; assay type: cell-based; conditions: hepg2, 20 µM, dose 10-20 µM
# HepG2 [2] = assay: Hypolipidemic activity in oleic, palmitic, linoleic and arachidonic acid 29:47:18:6 (v/v)-induced hyperlipidemia in human HepG2 cells assessed as reduction in lipid content at 7.5 uM by Oil Red O staining based assay relative to control; assay type: functional; design: scale not given: the % may be the effect or the level left
# 3T3-L1 [3] = assay: Cytotoxicity against mouse 3T3-L1 cells assessed as reduction in cell viability by MTT assay; assay type: cell-based
# 3T3-L1 [4] = assay: Hypolipidemic activity in mouse 3T3-L1 preadipocytes assessed as reduction in lipid content at 15 uM by Oil Red O staining based assay relative to control; assay type: functional; design: scale not given: the % may be the effect or the level left
# 3T3-L1 [5] = assay: Hypolipidemic activity in mouse 3T3-L1 preadipocytes assessed as reduction in lipid content at 10 uM by Oil Red O staining based assay relative to control; assay type: functional; design: scale not given: the % may be the effect or the level left
# 3T3-L1 [6] = assay: Hypolipidemic activity in mouse 3T3-L1 preadipocytes assessed as reduction in lipid content at 5 uM by Oil Red O staining based assay relative to control; assay type: functional; design: scale not given: the % may be the effect or the level left
# 3T3-L1 [7] = assay: Hypolipidemic activity in mouse 3T3-L1 mature adipocytes assessed as reduction in lipid content at 5 uM by Oil Red O staining based assay relative to control; assay type: functional; design: scale not given: the % may be the effect or the level left
# HepG2 [8] = assay: Activation of AMPK in oleic, palmitic, linoleic and arachidonic acid 29:47:18:6 (v/v)-induced human HepG2 cells assessed as increase in AMPK phosphorylation at 1 uM by Western blot analysis relative to control; conditions: filed as activator
# HepG2 [9] = assay: Activation of AMPK in oleic, palmitic, linoleic and arachidonic acid 29:47:18:6 (v/v)-induced human HepG2 cells assessed as increase in ACC phosphorylation at 1 uM by Western blot analysis relative to control
# 3T3-L1 [10] = assay: Activation of AMPK in mouse 3T3-L1 preadipocytes assessed as increase in ACC phosphorylation at 0.1 to 15 uM by Western blot analysis; assay type: cell-based; conditions: filed as activator, dose 0.1-15 µM
# Mus musculus [11] = assay: Hypolipidemic activity in tyloxapol-induced Kunming mouse model of hyperlipidemia assessed as reduction in serum lipid level at 50 to 100 mg/kg, po measured after 24 hrs by macroscopic analysis; assay type: functional, organism-based; conditions: dose 50-100 mg/kg
# Mus musculus [12] = assay: Hypolipidemic activity in tyloxapol-induced Kunming mouse model of hyperlipidemia assessed as reduction in serum ALT level administered orally measured after 24 hrs; assay type: functional, organism-based
# Mus musculus [13] = assay: Hypolipidemic activity in tyloxapol-induced Kunming mouse model of hyperlipidemia assessed as reduction in serum AST level administered orally measured after 24 hrs; assay type: functional, organism-based
# Mus musculus [14] = assay: Hypolipidemic activity in tyloxapol-induced Kunming mouse model of hyperlipidemia assessed as reduction in lipid level in liver at 50 to 100 mg/kg, po measured after 24 hrs by Oil Red O staining based assay; assay type: functional, organism-based; conditions: dose 50-100 mg/kg
# Mus musculus [15] = assay: Hypolipidemic activity in tyloxapol-induced Kunming mouse model of hyperlipidemia at 50 to 100 mg/kg, po measured after 24 hrs by Masson's trichrome staining based assay; assay type: functional, organism-based; conditions: dose 50-100 mg/kg
# Mus musculus [16] = assay: Hypolipidemic activity in tyloxapol-induced Kunming mouse model of hyperlipidemia assessed as reduction in liver fibrosis at 50 to 100 mg/kg, po measured after 24 hrs by Masson's trichrome staining based assay; assay type: functional, organism-based; conditions: dose 50-100 mg/kg
# Mus musculus [17] = assay: Hypolipidemic activity in tyloxapol-induced Kunming mouse model of hyperlipidemia assessed as reduction in liver LDL-C level administered orally measured after 24 hrs; assay type: functional, organism-based
# Mus musculus [18] = assay: Hypolipidemic activity in tyloxapol-induced Kunming mouse model of hyperlipidemia assessed as reduction in liver MPO level at 50 to 100 mg/kg, po measured after 24 hrs; assay type: functional, organism-based; conditions: dose 50-100 mg/kg
# Mus musculus [19] = assay: Hypolipidemic activity in tyloxapol-induced Kunming mouse model of hyperlipidemia assessed as liver index at 100 mg/kg, po measured after 24 hrs (reference value: 65.00 +/- 0.87); assay type: functional
# Mus musculus [20] = assay: Hypolipidemic activity in tyloxapol-induced Kunming mouse model of hyperlipidemia assessed as kidney index at 100 mg/kg, po measured after 24 hrs (reference value: 11.20 +/- 0.58); assay type: functional
# Mus musculus [21] = assay: Hypolipidemic activity in tyloxapol-induced Kunming mouse model of hyperlipidemia assessed as perirenal white adipose tissue index at 100 mg/kg, po measured after 24 hrs (reference value: 18.14 +/- 1.44); assay type: functional
# Mus musculus [22] = assay: Hypolipidemic activity in tyloxapol-induced Kunming mouse model of hyperlipidemia assessed as epididymis white adipose tissue index at 100 mg/kg, po measured after 24 hrs (reference value: 23.43 +/- 3.10); assay type: functional
# Mus musculus [23] = assay: Hypolipidemic activity in tyloxapol-induced Kunming mouse model of hyperlipidemia assessed as liver index at 50 mg/kg, po measured after 24 hrs (reference value: 65.00 +/- 0.87); assay type: functional
# Mus musculus [24] = assay: Hypolipidemic activity in tyloxapol-induced Kunming mouse model of hyperlipidemia assessed as perirenal white adipose tissue index at 50 mg/kg, po measured after 24 hrs (reference value: 18.14 +/- 1.44); assay type: functional
# Mus musculus [25] = assay: In vivo induction of AMPK in tyloxapol-induced Kunming mouse model of hyperlipidemia assessed as increase in AKT phosphorylation in liver at 50 to 100 mg/kg, po measured after 24 hrs by Western blot analysis; assay type: functional, organism-based; conditions: dose 50-100 mg/kg
# Mus musculus [26] = assay: In vivo induction of AMPK in tyloxapol-induced Kunming mouse model of hyperlipidemia assessed as increase in ACC phosphorylation in liver at 50 to 100 mg/kg, po measured after 24 hrs by Western blot analysis; assay type: functional, organism-based; conditions: dose 50-100 mg/kg
# Mus musculus [27] = assay: In vivo induction of AMPK in tyloxapol-induced Kunming mouse model of hyperlipidemia assessed as increase in CPT-1A phosphorylation in white adipose tissue at 50 to 100 mg/kg, po measured after 24 hrs by Western blot analysis; assay type: functional, organism-based; conditions: dose 50-100 mg/kg
# Mus musculus [28] = assay: In vivo induction of AMPK in tyloxapol-induced Kunming mouse model of hyperlipidemia assessed as increase in CPT-1A phosphorylation in liver at 50 to 100 mg/kg, po measured after 24 hrs by Western blot analysis; assay type: functional, organism-based; conditions: dose 50-100 mg/kg
# Mus musculus [29] = assay: In vivo induction of AMPK in tyloxapol-induced Kunming mouse model of hyperlipidemia assessed as decrease in SREBP1-C expression in white adipose tissue at 50 to 100 mg/kg, po measured after 24 hrs by Western blot analysis; assay type: functional, organism-based; conditions: dose 50-100 mg/kg
# Mus musculus [30] = assay: In vivo effect on PPAR signaling in tyloxapol-induced Kunming mouse model of hyperlipidemia assessed as decrease in PPARbeta expression in white adipose tissue at 50 to 100 mg/kg, po measured after 24 hrs by Western blot analysis; assay type: functional, organism-based; conditions: dose 50-100 mg/kg
# Mus musculus [31] = assay: In vivo effect on PPAR signaling in tyloxapol-induced Kunming mouse model of hyperlipidemia assessed as increase in PPARbeta expression in liver at 50 to 100 mg/kg, po measured after 24 hrs by Western blot analysis; assay type: functional, organism-based; conditions: dose 50-100 mg/kg
# Mus musculus [32] = assay: In vivo effect on PPAR signaling in tyloxapol-induced Kunming mouse model of hyperlipidemia assessed as decrease in PPARgamma expression in white adipose tissue at 50 to 100 mg/kg, po measured after 24 hrs by Western blot analysis; assay type: functional, organism-based; conditions: dose 50-100 mg/kg
# Mus musculus [33] = assay: In vivo effect on PPAR signaling in tyloxapol-induced Kunming mouse model of hyperlipidemia assessed as decrease in PPARgamma expression in liver at 50 to 100 mg/kg, po measured after 24 hrs by Western blot analysis; assay type: functional, organism-based; conditions: dose 50-100 mg/kg
smiles,measurement,setting,value
CC(C)=CCC/C(C)=C/Cc1c(O)cc(O)c(C(=O)/C=C/c2ccc(O)cc2)c1O,Activity,HepG2 [1],Non-Toxic
same,Activity,HepG2 [2],43.86%
same,Activity,3T3-L1 [3],Non-Toxic
same,Activity,3T3-L1 [4],83.91%
same,Activity,3T3-L1 [5],67.87%
same,Activity,3T3-L1 [6],49.29%
same,Activity,3T3-L1 [7],71.33%
same,Activity,HepG2 [8],42.9%
same,Activity,HepG2 [9],31.7%
same,Activity,3T3-L1 [10],Active
same,Activity,Mus musculus [11],Active
same,Activity,Mus musculus [12],Dose-dependent effect
same,Activity,Mus musculus [13],Dose-dependent effect
same,Activity,Mus musculus [14],Active
same,Activity,Mus musculus [15],Active
same,Activity,Mus musculus [16],Active
same,Activity,Mus musculus [17],Dose-dependent effect
same,Activity,Mus musculus [18],Active
same,Activity_index,Mus musculus [19],52.78
same,Activity_index,Mus musculus [20],9.29
same,Activity_index,Mus musculus [21],9.83
same,Activity_index,Mus musculus [22],12.35
same,Activity_index,Mus musculus [23],55.64
same,Activity_index,Mus musculus [24],9.52
same,Activity,Mus musculus [25],Active
same,Activity,Mus musculus [26],Active
same,Activity,Mus musculus [27],Active
same,Activity,Mus musculus [28],Active
same,Activity,Mus musculus [29],Active
same,Activity,Mus musculus [30],Active
same,Activity,Mus musculus [31],Active
same,Activity,Mus musculus [32],Active
same,Activity,Mus musculus [33],Active
